# Test results from PubChem BioAssay (NCI).
#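 Compound exposure: 48 hours, 5 concentrations, 96-well plates. Definition used: TGI = concentration required for complete inhibition of growth.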
# Experiments:
# Assay in all cases: DTP human tumour cell line panel, 48 h
# MDA-MB-231 breast = tested on: MDA-MB-231 breast
# SN12C renal = tested on: SN12C renal
# SK-MEL-2 melanoma = tested on: SK-MEL-2 melanoma
# PC-3 prostate = tested on: PC-3 prostate
# T-47D breast = tested on: T-47D breast
# HOP-92 NSCLC = tested on: HOP-92 NSCLC
# UACC-257 melanoma = tested on: UACC-257 melanoma
# HCC-2998 colon = tested on: HCC-2998 colon
# SK-MEL-28 melanoma = tested on: SK-MEL-28 melanoma
# OVCAR-5 ovarian = tested on: OVCAR-5 ovarian
# SR leukemia = tested on: SR leukemia
# K-562 leukemia = tested on: K-562 leukemia
# SF-268 CNS = tested on: SF-268 CNS
SMILES,TGI (MDA-MB-231 breast) [µM],TGI (SN12C renal) [µM],TGI (SK-MEL-2 melanoma) [µM],TGI (PC-3 prostate) [µM],TGI (T-47D breast) [µM],TGI (HOP-92 NSCLC) [µM],TGI (UACC-257 melanoma) [µM],TGI (HCC-2998 colon) [µM],TGI (SK-MEL-28 melanoma) [µM],TGI (OVCAR-5 ovarian) [µM],TGI (SR leukemia) [µM],TGI (K-562 leukemia) [µM],TGI (SF-268 CNS) [µM]
O=C(OCc1ccccc1)N(CCCCN(CCCNCc1ccccc1)C(=O)OCc1ccccc1)CCCNCc1ccccc1,2.56,0.886,2.27,2.61,3.57,2.82,1.92,0.933,3.08,2.83,,,
COc1ccc(C2C3CCc4ccccc4C3=NN2S(=O)(=O)c2ccc(/C=C/C(=O)O)cc2)cc1 (stereo not drawn),> 100,> 100,9.79,> 100,> 100,> 100,,,,> 100,6.9,15.7,71.2
CC(=O)Nc1nnc(S(C)(=O)=O)s1,,> 100,,> 100,,> 100,> 100,,> 100,> 100,> 100,> 100,> 100
C=C[C@]1(C)CCC2=C(CCC3C2(C)CCC[C@@]3(C)COC(C)=O)C1 (stereo partly drawn),,31.4,29,,,35,53,31.8,60.4,32.8,35.8,33.5,40
COC(=O)C1=C(C)C=C(N2CCOCC2)C(C(=O)OC)C1c1ccccc1 (stereo not drawn),> 10,> 10,> 10,> 10,> 10,> 10,> 10,> 10,> 10,> 10,,> 10,> 10
Nc1cc(=O)n(-c2ccccc2)c(=S)n1-c1ccccc1,,> 100,> 100,,,,> 100,> 100,,> 100,,> 100,> 100
CCOC1Oc2ccccc2-c2nc(SC)ncc21 (stereo not drawn),> 100,> 100,> 100,> 100,> 100,> 100,> 100,,,> 100,> 100,,> 100
Cc1ccc(S(=O)c2sccc2C=O)cc1 (stereo not drawn),> 100,63.5,> 100,> 100,> 100,,> 100,> 100,92.4,> 100,84.2,> 100,82.4
Cn1c(=O)sc2cc(C(=S)N3CCC(Cc4ccccc4)CC3)ccc21,> 100,> 100,> 100,> 100,,,> 100,,> 100,> 100,> 100,> 100,> 100
COC(=O)C1(C(=O)OC)N=C(C)OC1/C=C/c1ccccc1 (stereo not drawn),,> 100,> 100,> 100,> 100,> 100,> 100,> 100,> 100,> 100,> 100,> 100,
CN(c1cn(C2CC[C@@H](CO)O2)c(=O)[nH]c1=O)C1CCCCC1 (stereo partly drawn),> 100,> 100,,> 100,> 100,> 100,,> 100,> 100,> 100,> 100,> 100,> 100
COC(=O)[C@H](Cc1ccc(OC(C)(C)C)cc1)N[C@H](C)C(=O)N[C@@H](Cc1ccccc1)C(=O)OCc1ccccc1,> 100,> 100,,> 100,,> 100,> 100,> 100,> 100,> 100,70.5,63.5,> 100
Cc1cc(S(=O)(=O)/N=C(/[N-]S(=O)(=O)c2ccc(Cl)cc2)[n+]2ccc(N(C)C)cc2)c(SCC(=O)O)cc1Cl,> 100,> 100,,> 100,> 100,54.3,> 100,,,> 100,> 100,> 100,> 100
CC(OC(=O)C(CC(=O)OC(C)(C)C)NC(=O)OC(C)(C)C)C(=O)OCc1ccccc1 (stereo not drawn),> 100,> 100,> 100,> 100,> 100,,> 100,> 100,> 100,> 100,> 100,> 100,> 100
CN1CCC2(CC1)C(=NC1CCCCC1)NC(=S)N2c1ccccc1,> 100,> 100,,,> 100,> 100,> 100,> 100,> 100,> 100,> 100,> 100,> 100
O=C(O)CC(Sc1ccccc1)c1ccccc1 (stereo not drawn),> 100,> 100,> 100,> 100,> 100,> 100,,,> 100,> 100,,> 100,> 100
O=C1CSC(c2c[nH]c3ccccc23)N1c1ccccc1[N+](=O)[O-] (stereo not drawn),> 100,> 100,,> 100,> 100,> 100,> 100,> 100,> 100,> 100,> 100,> 100,> 100
C1CC[C@H]2SSC3CCCC[C@H]3SSC2C1 (stereo partly drawn),> 100,> 100,,> 100,> 100,> 100,> 100,> 100,> 100,> 100,> 100,> 100,> 100
COc1cc(C2C(Cl)C(=O)N2NC(=O)c2ccc(N)cc2)cc(Br)c1O (stereo not drawn),,33.4,32.3,,,39.8,35.9,24.3,31.6,38.8,,48.7,19.7
O=c1cn[nH]c(=S)n1/N=C/c1c[nH]c2ccccc12,,,> 100,> 100,,,> 100,> 100,> 100,> 100,> 100,> 100,> 100
